Measured values reported in patent publication US20050009924A1 (priority 2003, published 2005).

How the values were obtained:
[1] = system: non-small-cell lung cancer cells H1299; assay: MTT relative viability, PhTERT-SEAP (H1299) cells; settings: PhTERT-SEAP(hTERT-H1299)
[2] = system: transcriptional activity of hTERT; assay: SEAP reporter assay of hTERT expression, PhTERT-SEAP (H1299); type: cell-based, human; settings: PhTERT-SEAP(hTERT-H1299)
Procedure: (§1) Secreted alkaine phosphatase was used as the reporter system to monitor the transcriptional activity of hTERT. Here, about […] each were grown in 96-well plates and incubated at 37° C. for 24 h and changed with fresh media. Varying amounts of drugs were added and cells were incubated for another 24 h. Culture media were collected and heated at 65° C. for 10 min to inactivate heat-labile phosphatases. An equal amount of SEAP buffer (2 M diethanolamine, 1 mM MgCl2, and 20 mM […]) was added to the media and p-nitrophenyl phosphate was added to a final concentration of 12 mM. Absorptions at 405 nm were taken, and the rate of absorption increase is determined.
(§2) Culture media were changed every 3 days. […] The stable clones were selected using G418.

[3] = system: human hepatoma G2 cells; assay: Cytotoxicity assay (XTT colorimetric), Hep G2; type: cell-based; settings: 48 h of drug exposure
[4] = system: rat glioma C6 cells; assay: Cytotoxicity assay (XTT colorimetric), C6 cells; type: cell-based; settings: 48 h of drug exposure
[5] = system: hepatitis B virus transfected hepatoma cell lines, HepG 2.2.15 cells; assay: Cytotoxicity assay, 2.2.15 cells; type: cell-based, human; settings: 48 h of drug exposure
[6] = system: hTERT-BJ1 cells; assay: MTT relative viability, PhTERT-SEAP (hTERT-BJ1) cells; settings: PhTERT-SEAP (hTERT-BJ1)
[7] = system: transcriptional activity of hTERT; assay: SEAP reporter assay of hTERT expression, PhTERT-SEAP (hTERT-BJ1); type: cell-based, human; settings: PhTERT-SEAP (hTERT-BJ1)
Procedure: as §1, §2

## O=C(Nc1ccc(NC(=O)c2ccc(Cl)cc2Cl)c2c1C(=O)c1ccccc1C2=O)c1ccc(Cl)cc1Cl [VI8, 1,4-Bis(2,4-dichlorobenzoylamido)-9,10-anthracenedione]
[1]; 1.7 μM
  Relative MTT viability (%): 106 ± 3.9%
[1]; 17 μM
  Relative MTT viability (%): 95 ± 1.3%
[1]; 171 μM
  Relative MTT viability (%): 83 ± 1.2%
[2]; 1.7 μM
  Relative SEAP activity (%): 85 ± 7.9%
  SEAP/vibility: 0.80
[2]; 17 μM
  Relative SEAP activity (%): 84 ± 7.1%
  SEAP/vibility: 0.89
[2]; 171 μM
  Relative SEAP activity (%): 87 ± 2.6%
  SEAP/vibility: 1.06
[3]
  IC50: > 20 µM
[4]
  IC50: > 20 µM
[5]
  IC50: > 20 µM
[6]; 1.7 μM
  Relative MTT viability (%): 102 ± 3.4%
[6]; 17 μM
  Relative MTT viability (%): 98 ± 7.2%
[6]; 171 μM
  Relative MTT viability (%): 76 ± 4.8%
[7]; 1.7 μM
  Relative SEAP activity (%): 33 ± 11.2%
  SEAP/vibility: 0.32
[7]; 17 μM
  Relative SEAP activity (%): 25 ± 17.2%
  SEAP/vibility: 0.26
[7]; 171 μM
  Relative SEAP activity (%): 39 ± 12.8%
  SEAP/vibility: 0.52

## O=C(Nc1ccc(NC(=O)c2ccccc2F)c2c1C(=O)c1ccccc1C2=O)c1ccccc1F [VI10, 1,4-Bis(2-fluorobenzoylamido)-9,10-anthracenedione]
[1]; 2.0 μM
  Relative MTT viability (%): 116 ± 2.4%
[1]; 20 μM
  Relative MTT viability (%): 104 ± 6.1%
[1]; 207 μM
  Relative MTT viability (%): 77 ± 2.6%
[2]; 2.0 μM
  Relative SEAP activity (%): 105 ± 7.8%
  SEAP/vibility: 0.91
[2]; 20 μM
  Relative SEAP activity (%): 107 ± 11.9%
  SEAP/vibility: 1.03
[2]; 207 μM
  Relative SEAP activity (%): 103 ± 14.4%
  SEAP/vibility: 1.34
[3]
  IC50: > 20 µM
[4]
  IC50: > 20 µM
[5]
  IC50: > 20 µM
[6]; 2.0 μM
  Relative MTT viability (%): 106 ± 6.5%
[6]; 20 μM
  Relative MTT viability (%): 105 ± 8.5%
[6]; 207 μM
  Relative MTT viability (%): 86 ± 7.3%
[7]; 2.0 μM
  Relative SEAP activity (%): 95 ± 8.9%
  SEAP/vibility: 0.90
[7]; 20 μM
  Relative SEAP activity (%): 96 ± 9.8%
  SEAP/vibility: 0.96
[7]; 207 μM
  Relative SEAP activity (%): 79 ± 7.4%
  SEAP/vibility: 0.92

## O=C(Nc1ccc(NC(=O)c2ccccc2[N+](=O)[O-])c2c1C(=O)c1ccccc1C2=O)c1ccccc1[N+](=O)[O-] [VI11, 1,4-Bis(2-nitrobenzoylamido)-9,10-anthracenedione]
[1]; 1.8 μM
  Relative MTT viability (%): 104 ± 6.3%
[1]; 18 μM
  Relative MTT viability (%): 101 ± 4.1%
[1]; 186 μM
  Relative MTT viability (%): 86 ± 5.3%
[2]; 1.8 μM
  Relative SEAP activity (%): 105 ± 4.3%
  SEAP/vibility: 1.00
[2]; 18 μM
  Relative SEAP activity (%): 107 ± 7.9%
  SEAP/vibility: 1.06
[2]; 186 μM
  Relative SEAP activity (%): 94 ± 8.0%
  SEAP/vibility: 1.10
[3]
  IC50: > 20 µM
[4]
  IC50: > 20 µM
[5]
  IC50: > 20 µM
[6]; 1.8 μM
  Relative MTT viability (%): 110 ± 4.1%
[6]; 18 μM
  Relative MTT viability (%): 107 ± 6.3%
[6]; 186 μM
  Relative MTT viability (%): 99 ± 3.2%
[7]; 1.8 μM
  Relative SEAP activity (%): 102 ± 33.4%
  SEAP/vibility: 0.92
[7]; 18 μM
  Relative SEAP activity (%): 122 ± 19.5%
  SEAP/vibility: 1.14
[7]; 186 μM
  Relative SEAP activity (%): 114 ± 28.1%
  SEAP/vibility: 1.15
